Where two headings read alike, the source gives them in different places.
Tests used:
Phytophthora capsici [1] = assay: In vitro fungitoxicity of hydrazones with and without copper towards Phytophthora capsici (Example 28, Table 3); type: cell-based; conditions: 0.050 μg/mL, 48 h
Phytophthora infestans = type: in vivo, Phytophthora infestans on tomato (Outdoor Girl)
Phytophthora capsici [2] = assay: Fungitoxicity of copper-hydrazone mixtures of different ratios towards Phytophthora capsici (Example 36, Table 12); type: cell-based; conditions: Phytophthora capsici
Procedure: In vitro fungitoxicity assays against Phytophthora capsici were conducted using the copper-minus AS medium described in Example 28. Mixtures containing hydrazone compound 16 at 200 nM and CuCl2.2H2O at 0.2 μM (1:1 molar ratio), 0.8 μM (1:4 ratio), 3.2 μM (1:16 ratio), 12.5 μM (1:62.5 ratio), 50 μM (1:200 ratio) and 200 μM (1:1000 ratio) were prepared in copper-minus AS medium. Two-fold dilution series of these mixtures were then prepared in 100 μL aliquots of copper-minus AS medium in flat-bottomed 96-well microtiter plates. A suspension of P. capsici zoospores in Chelex-treated water at 5×10^4 spores per mL was prepared as in Example 28. Microtiter plates were inoculated with 100 μL of the spore suspension and incubated at 25° C. for 48 h before assessing fungal growth by measuring light scattering in a NepheloStar plate reader.
(§1) Growth inhibition was determined by comparing growth in the presence of copper-hydrazone mixture with growth in control wells lacking the copper-hydrazone mixture. EC50 values were calculated from dose-response curves, and are expressed as the amounts of hydrazone or copper in each test mixture at the rates providing 50% inhibition of growth as compared to a control lacking the copper-hydrazone mixture.

[3] = tested on: Leptosphaeria nodorum (glume blotch of wheat); assay: Cu-hydrazone complexes versus parent hydrazones against glume blotch of wheat (Example 32, Table 8); type: in vivo, Leptosphaeria nodorum on wheat (cultivar Yuma); conditions: Parastagonospora nodorum, 200 ppm spray, inoculated after 24 h
[4] = tested on: Leptosphaeria nodorum (LEPTNO); assay: Fungitoxicity of copper-hydrazone mixtures of different ratios towards Leptosphaeria nodorum (Example 35, Table 11); type: cell-based; conditions: Parastagonospora nodorum
Procedure: In vitro fungitoxicity assays against LEPTNO were conducted using the copper-minus medium described in Example 26. Mixtures containing hydrazone compound 16 at 200 nM and CuCl2 at 0.2 μM (1:1 molar ratio), 0.8 μM (1:4 ratio), 12.5 μM (1:62.5 ratio) and 200 μM (1:1000 ratio) were prepared in copper-minus medium. Two-fold dilution series of these mixtures were then prepared in 100 μL aliquots of copper-minus medium in flat-bottomed 96-well microtiter plates. A suspension of LEPTNO spores in copper-minus medium at 2×10^5 spores per mL was prepared as in Example 26. Microtiter plates were inoculated with 100 μL of the spore suspension and the plates were incubated at 25° C. for 72 h before assessing fungal growth by measuring light scattering in a NepheloStar plate reader.
as §1

[5] = tested on: Leptosphaeria nodorum (LEPTNO); assay: In vitro fungitoxicity of hydrazones with and without copper towards Leptosphaeria nodorum (Example 26); type: cell-based; conditions: compound 0.05 μg/mL, 72 h at 25° C.
[6] = tested on: Leptosphaeria nodorum (LEPTNO); assay: Isolated metal-hydrazone complexes versus parent hydrazones, in vitro, Leptosphaeria nodorum (Example 31, Table 7); type: cell-based; conditions: Parastagonospora nodorum; 0.1 μg/mL; copper-minus medium; 72 h
[7] = hydrazone 200 μM + CuCl2 200 μM
[8] = hydrazone 200 μM + CuCl2 400 μM
[9] = hydrazone 200 μM + CuCl2 800 μM
[10] = hydrazone 200 μM + CuSO4 200 μM
[11] = hydrazone 200 μM + CuSO4 400 μM
[12] = hydrazone 200 μM + CuSO4 800 μM
[13] = hydrazone 400 μM + CuCl2 200 μM
[14] = hydrazone 400 μM + CuCl2 400 μM
[15] = hydrazone 400 μM + CuCl2 800 μM
[16] = hydrazone 400 μM + CuSO4 200 μM
[17] = hydrazone 400 μM + CuSO4 400 μM
[18] = hydrazone 400 μM + CuSO4 800 μM
[19] = Hydrazone without CuCl2, read-out: Hydrazone EC50
[20] = Hydrazone:Cu ratio 1 to 1, read-out: Hydrazone EC50 (amount of hydrazone in mixture at EC50)
[21] = Hydrazone:Cu ratio 1 to 4, read-out: Hydrazone EC50 (amount of hydrazone in mixture at EC50)
[22] = Hydrazone:Cu ratio 1 to 62.5, read-out: Hydrazone EC50 (amount of hydrazone in mixture at EC50)
[23] = Hydrazone:Cu ratio 1 to 1000, read-out: Hydrazone EC50 (amount of hydrazone in mixture at EC50)

## O=C(N/N=C/c1cc(Cl)cc(Cl)c1O)c1ccccc1 [Example 16]
Phytophthora capsici [1]; copper-plus AS medium (CuCl2, 50 μM)
  % Inhn Plus copper Observed: 91.9%
Phytophthora capsici [1]; Phytophthora capsici, copper-minus AS medium, read-out: % Inhn Minus copper Observed
  inhibition of growth at 0.05 µg/mL: 0%
Phytophthora infestans; hydrazone 10 μM + CuCl2 10 μM
  % Control of Tomato Late Blight: 33.5%
  % Control of Tomato Late Blight, predicted (in brackets, Colby): 3.1%
Phytophthora infestans; hydrazone 10 μM + CuCl2 50 μM
  % Control of Tomato Late Blight: 39.7%
  % Control of Tomato Late Blight, predicted (in brackets, Colby): 9.9%
Phytophthora infestans; hydrazone 10 μM + CuCl2 200 μM
  % Control of Tomato Late Blight: 69.0%
  % Control of Tomato Late Blight, predicted (in brackets, Colby): 39.2%
Phytophthora infestans; hydrazone 10 μM + CuCl2 400 μM
  % Control of Tomato Late Blight: 75.7%
  % Control of Tomato Late Blight, predicted (in brackets, Colby): 56.6%
Phytophthora infestans; hydrazone 10 μM + CuCl2 800 μM
  % Control of Tomato Late Blight: 94.2%
  % Control of Tomato Late Blight, predicted (in brackets, Colby): 70.7%
Phytophthora infestans; hydrazone 10 μM + CuSO4 10 μM
  % Control of Tomato Late Blight: 26.3%
  % Control of Tomato Late Blight, predicted (in brackets, Colby): 3.1%
Phytophthora infestans; hydrazone 10 μM + CuSO4 50 μM
  % Control of Tomato Late Blight: 28.1%
  % Control of Tomato Late Blight, predicted (in brackets, Colby): 6.2%
Phytophthora infestans; hydrazone 10 μM + CuSO4 200 μM
  % Control of Tomato Late Blight: 56.0%
  % Control of Tomato Late Blight, predicted (in brackets, Colby): 50.4%
Phytophthora infestans; hydrazone 10 μM + CuSO4 400 μM
  % Control of Tomato Late Blight: 77.3%
  % Control of Tomato Late Blight, predicted (in brackets, Colby): 76.4%
Phytophthora infestans; hydrazone 10 μM + CuSO4 800 μM
  % Control of Tomato Late Blight: 72.2%
  % Control of Tomato Late Blight, predicted (in brackets, Colby): 83.1%
Phytophthora infestans; hydrazone 10 μM alone, no copper
  % Control of Tomato Late Blight: 1.5%
Phytophthora infestans; hydrazone 50 μM + CuCl2 10 μM
  % Control of Tomato Late Blight: 41.9%
  % Control of Tomato Late Blight, predicted (in brackets, Colby): 12.8%
Phytophthora infestans; hydrazone 50 μM + CuCl2 50 μM
  % Control of Tomato Late Blight: 63.0%
  % Control of Tomato Late Blight, predicted (in brackets, Colby): 18.8%
Phytophthora infestans; hydrazone 50 μM + CuCl2 200 μM
  % Control of Tomato Late Blight: 91.5%
  % Control of Tomato Late Blight, predicted (in brackets, Colby): 45.2%
Phytophthora infestans; hydrazone 50 μM + CuCl2 400 μM
  % Control of Tomato Late Blight: 91.7%
  % Control of Tomato Late Blight, predicted (in brackets, Colby): 60.9%
Phytophthora infestans; hydrazone 50 μM + CuCl2 800 μM
  % Control of Tomato Late Blight: 98.3%
  % Control of Tomato Late Blight, predicted (in brackets, Colby): 73.6%
Phytophthora infestans; hydrazone 50 μM + CuSO4 10 μM
  % Control of Tomato Late Blight: 56.8%
  % Control of Tomato Late Blight, predicted (in brackets, Colby): 12.8%
Phytophthora infestans; hydrazone 50 μM + CuSO4 50 μM
  % Control of Tomato Late Blight: 67.7%
  % Control of Tomato Late Blight, predicted (in brackets, Colby): 15.5%
Phytophthora infestans; hydrazone 50 μM + CuSO4 200 μM
  % Control of Tomato Late Blight: 72.9%
  % Control of Tomato Late Blight, predicted (in brackets, Colby): 55.4%
Phytophthora infestans; hydrazone 50 μM + CuSO4 400 μM
  % Control of Tomato Late Blight: 78.0%
  % Control of Tomato Late Blight, predicted (in brackets, Colby): 78.8%
Phytophthora infestans; hydrazone 50 μM + CuSO4 800 μM
  % Control of Tomato Late Blight: 91.6%
  % Control of Tomato Late Blight, predicted (in brackets, Colby): 84.8%
Phytophthora infestans; hydrazone 50 μM alone, no copper
  % Control of Tomato Late Blight: 11.3%
Phytophthora infestans; hydrazone 200 μM + CuCl2 10 μM
  % Control of Tomato Late Blight: 67.8%
  % Control of Tomato Late Blight, predicted (in brackets, Colby): 22.7%
Phytophthora infestans; hydrazone 200 μM + CuCl2 50 μM
  % Control of Tomato Late Blight: 96.6%
  % Control of Tomato Late Blight, predicted (in brackets, Colby): 28.1%
Phytophthora infestans; [7]
  % Control of Tomato Late Blight: 95.8%
  % Control of Tomato Late Blight, predicted (in brackets, Colby): 51.5%
Phytophthora infestans; [8]
  % Control of Tomato Late Blight: 90.8%
  % Control of Tomato Late Blight, predicted (in brackets, Colby): 65.4%
Phytophthora infestans; [9]
  % Control of Tomato Late Blight: 96.7%
  % Control of Tomato Late Blight, predicted (in brackets, Colby): 76.6%
Phytophthora infestans; hydrazone 200 μM + CuSO4 10 μM
  % Control of Tomato Late Blight: 78.0%
  % Control of Tomato Late Blight, predicted (in brackets, Colby): 22.7%
Phytophthora infestans; hydrazone 200 μM + CuSO4 50 μM
  % Control of Tomato Late Blight: 81.3%
  % Control of Tomato Late Blight, predicted (in brackets, Colby): 25.1%
Phytophthora infestans; [10]
  % Control of Tomato Late Blight: 93.2%
  % Control of Tomato Late Blight, predicted (in brackets, Colby): 60.4%
Phytophthora infestans; [11]
  % Control of Tomato Late Blight: 95.8%
  % Control of Tomato Late Blight, predicted (in brackets, Colby): 81.2%
Phytophthora infestans; [12]
  % Control of Tomato Late Blight: 97.5%
  % Control of Tomato Late Blight, predicted (in brackets, Colby): 86.5%
Phytophthora infestans; hydrazone 200 μM alone, no copper
  % Control of Tomato Late Blight: 21.4%
Phytophthora infestans; hydrazone 400 μM + CuCl2 10 μM
  % Control of Tomato Late Blight: 64.4%
  % Control of Tomato Late Blight, predicted (in brackets, Colby): 26.9%
Phytophthora infestans; hydrazone 400 μM + CuCl2 50 μM
  % Control of Tomato Late Blight: 91.7%
  % Control of Tomato Late Blight, predicted (in brackets, Colby): 32.0%
Phytophthora infestans; [13]
  % Control of Tomato Late Blight: 91.7%
  % Control of Tomato Late Blight, predicted (in brackets, Colby): 54.1%
Phytophthora infestans; [14]
  % Control of Tomato Late Blight: 99.8%
  % Control of Tomato Late Blight, predicted (in brackets, Colby): 67.3%
Phytophthora infestans; [15]
  % Control of Tomato Late Blight: 100.0%
  % Control of Tomato Late Blight, predicted (in brackets, Colby): 77.9%
Phytophthora infestans; hydrazone 400 μM + CuSO4 10 μM
  % Control of Tomato Late Blight: 41.5%
  % Control of Tomato Late Blight, predicted (in brackets, Colby): 26.9%
Phytophthora infestans; hydrazone 400 μM + CuSO4 50 μM
  % Control of Tomato Late Blight: 54.5%
  % Control of Tomato Late Blight, predicted (in brackets, Colby): 29.2%
Phytophthora infestans; [16]
  % Control of Tomato Late Blight: 87.2%
  % Control of Tomato Late Blight, predicted (in brackets, Colby): 62.6%
Phytophthora infestans; [17]
  % Control of Tomato Late Blight: 96.6%
  % Control of Tomato Late Blight, predicted (in brackets, Colby): 82.2%
Phytophthora infestans; [18]
  % Control of Tomato Late Blight: 98.3%
  % Control of Tomato Late Blight, predicted (in brackets, Colby): 87.3%
Phytophthora infestans; hydrazone 400 μM alone, no copper
  % Control of Tomato Late Blight: 25.7%
Phytophthora capsici [2]; [19]
  EC50: 143 nM
Phytophthora capsici [2]; [20]
  EC50: 71.1 nM
Phytophthora capsici [2]; [21]
  EC50: 47.1 nM
Phytophthora capsici [2]; Hydrazone:Cu ratio 1 to 16, read-out: Hydrazone EC50 (amount of hydrazone in mixture at EC50)
  EC50: 27.5 nM
Phytophthora capsici [2]; [22]
  EC50: 16.6 nM
Phytophthora capsici [2]; Hydrazone:Cu ratio 1 to 250, read-out: Hydrazone EC50 (amount of hydrazone in mixture at EC50)
  EC50: 7.6 nM
Phytophthora capsici [2]; [23]
  EC50: 4.6 nM
[3]
  pest or weed control at 200 ppm: 41%
[4]; [19]
  EC50: > 3200 nM
[4]; [20]
  EC50: 72.2 nM
[4]; [21]
  EC50: 43 nM
[4]; [22]
  EC50: 28.4 nM
[4]; [23]
  EC50: 14 nM
[5]; Parastagonospora nodorum, 72 h, copper-minus medium, read-out: LEPTNO % Inhn. Minus Copper Observed
  inhibition of growth at 0.05 µg/mL: 0%
[5]; copper-plus medium (CuCl2.2H2O)
  LEPTNO % Inhn. Plus Copper Observed: 97.1%
[6]
  inhibition at 0.1 µg/mL: 19.9%
